# Measurements as given in publication PMC8162438, “Cancer cell-selective modulation of mitochondrial respiration and metabolism by potent organogold(III) dithiocarbamates” (Chemical Science, 2020).
# System: MDA-MB-231
# Test: Mitochondrial membrane potential (JC-1)
# Format: cell-based
# Conditions: MDA-MB-231, 10 μM, 6 h, versus DMSO
# Excerpt: Activated DEG included NDUFS7, [complex I], COX7A1 gene [complex IV], and ATP5O, ATP5I genes [complex V] whereas the inhibited DEG were MT-ND4L [complex I], SDHD gene [complex II], and ATP5C, ATP5F [complex V]. […] These findings prompted functional biology experiments to further corroborate the effect of 2a or its mechanism of action in TNBC. We examined the effect of 2a on mitochondrial membrane potential, assayed by JC-1 dye.[85] […] We used carbonyl cyanide m-chlorophenyl hydrazine (CCCP), an uncoupler, as a positive control to validate the experiment. The MMP is a key driving force in ATP synthesis and overall a key factor in maintaining redox homeostasis throughout the cell.[86] […]
# text (Figure 5C). Samples 37 °C, NaN 3, methyl-β-cyclodextrin, and chlorpromazine hydrochloride were calculated using calibration curve Fig. S134 and samples wortmannin, genistein, and +4 °C were calculated using calibration curve Fig. S135. […]
# Prior to analysis samples were required to pass three tests before library construction: 1) nanodrop for RNA purity (OD 260/OD280), 2) agarose gel electrophoresis for RNA integrity and potential contamination, and 3) Agilent 2100 check RNA integrity. […] After library construction, qPCR was used to accurately quantify the library effective concentration (> 2 nM), in order to ensure the library quality. […]
smiles,measurement,value
C[N+](C)=C1[S][Au-2]2([S]1)[c]1ccccc1Cc1cccc[n+]12.F[P-](F)(F)(F)(F)F (stereo not shown) [2a],Mitochondrial membrane potential (JC-1),strong depolarization of the MMP
